Data on two compounds can be found in PMC9869559, “The Weimberg pathway: an alternative for Myceliophthora thermophila to utilize D-xylose” (Biotechnology for Biofuels and Bioproducts, 2023).

The target in assay [1] is T1, Mtxyd1 (native D-xylose dehydrogenase, XDH) (Thermothelomyces thermophilus, UniProt G2QN15).
T1 construct: gene MYCTH_112471; full-length native gene from cDNA, inserted at pck locus of M. thermophila JG207 delta-Mtxyl1 (DF1310); crude mycelial extract
T1 sequence (G2QN15 1-395): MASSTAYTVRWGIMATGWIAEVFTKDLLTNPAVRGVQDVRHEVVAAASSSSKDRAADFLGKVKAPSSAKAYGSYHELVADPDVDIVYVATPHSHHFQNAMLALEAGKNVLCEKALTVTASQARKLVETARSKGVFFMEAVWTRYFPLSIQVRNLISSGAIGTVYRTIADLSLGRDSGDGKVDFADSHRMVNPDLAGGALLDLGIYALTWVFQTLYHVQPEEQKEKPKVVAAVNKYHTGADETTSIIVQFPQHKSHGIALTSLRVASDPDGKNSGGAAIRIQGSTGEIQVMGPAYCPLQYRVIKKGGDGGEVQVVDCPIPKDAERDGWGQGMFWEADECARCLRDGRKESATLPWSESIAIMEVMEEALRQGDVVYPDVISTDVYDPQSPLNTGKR
As to the kind of experiment: NADP+ reduction at […] nm, crude mycelial extract of overexpressing strain. To be noted: 100 mM D-xylose, 2 mM NADP+, 2 mM MgCl2, 100 mM Tris-HCl pH 8.0, 30 °C. The assay is classed as biochemical.

In assay [2] the target is T2, Trxyd1 (D-xylose dehydrogenase, XDH) (Trichoderma reesei, UniProt G0R8G7).
T2 construct: gene TRIREDRAFT_53673; full-length gene from cDNA, inserted at pck locus of M. thermophila JG207 delta-Mtxyl1 (DF1309); crude mycelial extract
T2 sequence (G0R8G7 1-391): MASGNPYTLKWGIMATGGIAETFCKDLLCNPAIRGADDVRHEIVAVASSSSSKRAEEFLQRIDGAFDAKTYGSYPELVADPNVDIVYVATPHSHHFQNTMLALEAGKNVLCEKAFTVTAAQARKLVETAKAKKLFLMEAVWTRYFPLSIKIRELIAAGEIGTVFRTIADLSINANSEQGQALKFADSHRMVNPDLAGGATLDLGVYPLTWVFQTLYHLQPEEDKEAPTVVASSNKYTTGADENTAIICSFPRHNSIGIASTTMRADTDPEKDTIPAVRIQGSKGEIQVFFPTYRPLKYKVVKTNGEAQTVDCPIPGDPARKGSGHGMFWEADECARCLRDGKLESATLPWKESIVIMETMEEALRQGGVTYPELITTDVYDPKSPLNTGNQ
As to the kind of experiment: NAD+ or NADP+ reduction at […] nm, crude mycelial extract of overexpressing strain. The assay is classed as biochemical. To be noted: 100 mM D-xylose, 2 mM NAD+ or NADP+, 2 mM MgCl2, 100 mM Tris-HCl pH 8.0, 30 °C.

In the case of `OC1OC[C@@H](O)[C@H](O)[C@H]1O` (stereo partly drawn) [D-xylose], the specific activity entry in assay [1] is “XDH encoded by endogenous Mtxyd1 owned the highest activity”; in assay [2], “The enzymatic activity of XDH in strains DF1309 and DF1310 was verified”.
With `NC(=O)c1ccc[n+]([C@@H]2O[C@H](COP(=O)(O)OP(=O)(O)OC[C@H]3O[C@@H](n4cnc5c(N)ncnc54)[C@H](OP(=O)(O)O)[C@@H]3O)[C@@H](O)[C@H]2O)c1` [NADP^+], the specific activity result in assay [1] is reported as “When using NADP^+ as a cofactor, XDH encoded by endogenous Mtxyd1 owned the highest activity”.
